A word on the IC50: it is the concentration needed to halve the response being measured.

This assay deals with MAP kinase-activated protein kinase 2 (Homo sapiens, UniProt P49137). Kind of assay: Inhibition of GST-tagged MAPKAPK2 assessed as [33P] incorporation after 40 mins by scintillation proximity assay. In general terms: Scintillation proximity formats need no separation of bound from free tracer.

SMILES strings stand for the structures.

MAP kinase-activated protein kinase 2, sequence (P49137 whole entry): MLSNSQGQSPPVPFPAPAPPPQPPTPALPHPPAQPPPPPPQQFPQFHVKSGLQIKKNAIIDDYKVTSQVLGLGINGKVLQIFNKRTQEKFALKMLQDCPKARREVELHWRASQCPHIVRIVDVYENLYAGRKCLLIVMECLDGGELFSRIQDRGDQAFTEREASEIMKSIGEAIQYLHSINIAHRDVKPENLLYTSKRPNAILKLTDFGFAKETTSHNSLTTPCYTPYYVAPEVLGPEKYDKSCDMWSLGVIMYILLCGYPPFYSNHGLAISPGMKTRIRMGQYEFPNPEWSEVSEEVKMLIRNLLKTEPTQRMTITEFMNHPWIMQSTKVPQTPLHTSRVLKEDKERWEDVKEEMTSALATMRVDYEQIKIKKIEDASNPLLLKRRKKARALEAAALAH

Turning to `CC(C)=CCC/C(C)=C/C[C@]12C[C@@H](CC=C(C)C)[C@](C)(CCC=C(C)C)[C@](CC=C(C)C)(C(=O)C(C(=O)c3ccc(O)c(O)c3)=C1O)C2=O` [GUTTIFERONE P], the IC50 was determined as 22 µM.

On to `CC(C)=CCC/C(C)=C/C[C@]12C[C@@H](CC=C(C)C)C(C)(C)[C@](C/C=C(\C)CCC=C(C)C)(C(=O)C(C(=O)c3ccc(O)c(O)c3)=C1O)C2=O` [GUTTIFERONE O], for which the IC50 turned out to be 22 µM.

The values are drawn from ChEMBL document CHEMBL1154227, “Guttiferones O and P, prenylated benzophenone MAPKAPK-2 inhibitors from Garcinia solomonensis” (J Nat Prod, 2009).
